Measurements reported in US5821353A, “DNA encoding 1,3 beta-D glucan synthase subunits” (Merck & Co., Inc., priority 1996, dated 1998).
Converted amounts (≈) assume the structure as drawn.

Legend:
[1] = system: S. cerevisiae MS14 mutant; assay: disc diffusion drug resistance/sensitivity test; format: cell-based, Saccharomyces cerevisiae
Procedure: Cells of the yeast strains MY2144 and MY2145 carrying the respective MS10 and MS14 mutations were grown overnight in YPAD and SC media. From the overnight cultures, cells were diluted 1:10 in the same media and allowed to further grow for 4-6 hrs. The drug resistance/sensitivity tests were conducted by the disc diffusion assay on plates containing 20 ml of solid YPAD or SC media and 3×10^6 cells. The cells were added to premelted media that was cooled to 50° C. before pouring onto plates. Sterile filter discs containing different drugs were placed on the surface of the plates followed by incubation at 28° C. for 1-2 days. Sizes of the zones of growth inhibition were measured as an indication of relative drug resistance/sensitivity. The MS14 mutant is supersensitive to the chitin synthesis inhibitor nikkomycin Z and resistant to the echinocandin L-733-560.

[2] = system: S. cerevisiae MY2145; assay: MIC, growth inhibition; format: cell-based, Saccharomyces cerevisiae; conditions: Saccharomyces cerevisiae, MY2145, 24 h; read-out: MIC
Procedure: (§1) Liquid broth microdilution assay
(§2) To quantitate the sensitivity of a particular strain of S. cerevisiae to a compound such as FK506, L-733,560, or nikkomycin Z, the following procedure was followed:
(§3) Dissolve drug of interest at 4× the desired initial concentration. For L-733,560, a 64 mcg/ml solution in sterile SD is prepared. Aliquot 75 mcL of the drug suspension into column 3. Using a multichannel pipettor, transfer 75 mcL from column 3 into column 4, pipet up and down three times to mix, and then transfer 75 mcL from column 4 into column 5. Repeat the serial dilution until column 12 is reached; after mixing, discard 75 mcL to waste.
(§4) Inoculate each strain in a given row by adding 75 mcL of the inoculum into columns 2 to 12. […] Column 2 serves as the no-drug or 100% growth control. The plate is then incubated overnight at 30° C. without shaking.
(§5) After approximately 24 hours of incubation, gently agitate the plate to resuspend the cells and read the absorbance at 600 nm wavelength. The % control growth for any given well can be calculated by dividing the absorbance value for that well by the value from column 2 in the same row. If this is done for each column, the data can be plotted as "Percent control growth" vs. "Drug concentration". The resulting dose-response curve can be used to compare the drug sensitivities of various strains.
(§6) The data in the following table are the minimum concentration of the various drugs required to inhibit the growth of each the mutants and their parent X2180-1A.

[3] = system: S. cerevisiae MY2144 (fks 1-3); assay: MIC, growth inhibition; format: cell-based, Saccharomyces cerevisiae; conditions: Saccharomyces cerevisiae, 24 h
Procedure: as §1, §2, §3, §4, §5, §6

[4] = system: S. cerevisiae X2180-1A; assay: MIC, growth inhibition; format: cell-based, Saccharomyces cerevisiae; conditions: Saccharomyces cerevisiae, X21801A, 24 h, minimum concentration required to inhibit growth, read-out: MIC
Procedure: as §1, §2, §3, §4, §5, §6

[5] = system: chitin synthase from MY2145 (fks 1-4); assay: chitin synthase assay, membrane preparation; format: biochemical, Saccharomyces cerevisiae; conditions: membranes of MY2145 (fks 1-4)
Procedure: (§7) 125 mcg of the above extracts were trypsin activated and mixed with an equal volume (50 mcL) chitin synthase reaction cocktail, which included 0.5M Tris, pH 7.5, 40 mM MgCl, 320 microM GlcNAc, ^14 C-UDP-GlcNAc substrate mix, and 0.8% digitonin. After 30 minutes of incubation at 30° C., the incorporated ^14 C-[…] was precipitated with 10% trichloroacetic acid, collected onto Whatman glass microfiber GF/A disks and counted.
(§8) Crude enzyme preparations associated with cell membranes were tested for glucan and chitin synthesis activities. The sensitivity of the mutant 1,3-beta-D glucan synthase to L-733,560 and papulacandin was tested along with the sensitivity of the chitin synthases to nikkomycin Z.
(§9) The chitin synthase is not affected in its sensitivity to nikkomycin Z. The data in the following table show the IC50 s for the glucan synthase inhibitors (L-733,560 and papulacandin) and the chitin synthase inhibitor (nikkomycin Z) in 1,3-beta-D glucan synthase and chitin synthase assays, respectively. Equal amounts of membrane proteins were used to prime each reaction.

[6] = system: chitin synthase from MY2144 (fks 1-3); assay: chitin synthase assay, membrane preparation; format: biochemical, Saccharomyces cerevisiae; conditions: membranes of MY2144 (fks 1-3)
Procedure: as §7, §8, §9

[7] = system: chitin synthase from X2180-1A; assay: chitin synthase assay, membrane preparation; format: biochemical, Saccharomyces cerevisiae; conditions: membranes of X2180-1A
Procedure: as §7, §8, §9

## C[C@@H]([C@H](N)C(=O)N[C@H](C(=O)O)[C@H]1O[C@@H](n2ccc(=O)[nH]c2=O)[C@H](O)[C@@H]1O)[C@H](O)c1ccc(O)cn1 [Nikkomycin Z, nikkomycin Z]
[1]
  drug resistance/sensitivity phenotype: supersensitive
[2]
  MIC: 0.2 µg/mL (≈ 0.404 µM)
[3]
  MIC: > 100 µg/mL
[4]
  MIC: > 100 µg/mL
[5]
  IC50: 0.64 µg/mL (≈ 1.29 µM)
[6]
  IC50: 0.60 µg/mL (≈ 1.21 µM)
[7]
  IC50: 0.74 µg/mL (≈ 1.49 µM)
